The values that follow are results of earlier work, collected in US20200163955A1, “STERILE COMPOSITIONS OF INDACATEROL SUITABLE FOR NEBULIZATION” (GLENMARK SPECIALTY S.A., priority 2018, published 2020).

The conditions of the series: water.

Consider `CCc1cc2c(cc1CC)CC(NC[C@H](O)c1ccc(O)c3[nH]c(=O)ccc13)C2` [Indacaterol, 5-[(1R)-2-[(5,6-diethyl-2,3-dihydro-1H-inden-2-yl)amino]-1-hydroxyethyl]-8-hydroxy-1H-quinolin-2-one], for which the aqueous solubility result is “very slightly soluble in water”.
